The record followed here is patent US6369069B1 (Aventis Pharma Deutschland GmbH, priority 1998, dated 2002).

For one assay, the system named is Na^+-dependent Cl^−/HCO3^− exchanger (NCBE). Description: Inhibition of the Na+-dependent Cl−/HCO3− exchanger (NCBE) in human endothelial cells (pHi recovery, BCECF fluorescence, FLIPR). It is filed as cell-based. To be noted: 10 μM. As for the experimental part:
Inhibition of the Na^+-dependent Cl^−/HCO3^− exchanger (NCBE) in human endothelial cells
Human endothelial cells (ECV-304) were detached form culture flasks with the aid of trypsin/EDTA buffer (0.05/0.02% in phosphate buffer) and, after centrifugation (100 g, 5 min), taken up in a buffered saline solution (mmol/l: 115 NaCl, 20 NH4Cl, 5 KCl, 1 CaCl2, 1 MgSO4, 20 N-(2-hydroxyethyl)-piperazine-N[…]-2-ethanesulfonic acid (HEPES), 5 glucose and 1 g/l of bovine serum albumin; pH 7.4). This cell suspension was incubated at 37 °C. for 20 min with 5 μM BCECF acetoxymethyl ester. The cells were then washed and resuspended in a sodium- and bicarbonate-free buffer solution (mmol/l: 5 HEPES, 133.8 choline chloride, 4.7 KCl, 1.25 MgCl2, 0.97 K2HPO4, 0.23 KH2PO4, 5 glucose; pH 7.4).
For the subsequent fluorescence measurement in the FLIPR (Fluorescent Imaging Plate Reader), 100 μl of this cell suspension in each case containing 20,000 cells were added by pipette per well of a 96-well microtiter plate and this microtiter plate was centrifuged (100 g, 5 min). In the FLIPR, 100 μl of buffer solution in each case were then removed from a further prepared microtiter plate and added by pipette to each of the 96 wells of the measuring plate. In this case, for a 100% control, i.e. a recovery of the intracellular pH (pHi) by means of the NCBE, a bicarbonate- and sodium-containing buffer solution (mmol/l: 5 HEPES, 93.8 NaCl, 40 NaHCO3, 4.7 KCl, 1.25 CaCl2, 1.25 MgCl2, 0.97 Na2HPO4, 0.23 NaH2PO4, 5 glucose; pH 7.4) which contained 50 μM HOE 642 was used. For a 0% control, i.e. no pHi recovery at all, a bicarbonate-free, sodium-containing buffer solution (mmol/l: 5 HEPES, 133.8 NaCl, 4.7 KCl, 1.25 CaCl2, 1.25 MgCl2, 0.97 Na2HPO4, 0.23 NaH2PO4, 5 glucose; pH 7.4) to which 50 μM HOE 642 were also added was employed. The compounds according to the invention were added in various concentrations of the sodium- and bicarbonate-containing solution. After addition of the buffer solutions to the dye-loaded acidified cells situated in the measuring plate, the increase in the fluorescence intensity which corresponded to an increase in the pHi was determined in each well of the microtiter plate.
The kinetics were in this case recorded at 35° C. over a period of 2 minutes. The increase in the fluorescence intensities for different concentrations of the compounds according to the invention was related to the two controls and from this the inhibitory action of the substances was determined.
As to `COCCC(=O)N(Cc1ccc(-c2ccccc2S(=O)(=O)NC#N)cc1)Cc1ccccc1C` [Example 322], the “Residual activity % of the NCBE at 10 μM” value was determined as 66.3%.
`CC(C)(C)CC(=O)N(Cc1ccc(-c2ccccc2S(=O)(=O)NC#N)cc1)Cc1ccco1` [Example 158]: the “Residual activity % of the NCBE at 10 μM” value was 57.9%.
`N#CNS(=O)(=O)c1ccccc1-c1ccc(CN(C(=O)CC2CCCC2)C2CCc3ccccc32)cc1` (centres unmarked) [Example 364]: the “Residual activity % of the NCBE at 10 μM” value is recorded as 52.6%.
As for `COc1ccc(CN(Cc2ccc(-c3ccccc3S(=O)(=O)NC#N)cc2)C(=O)Cc2ccc(Cl)cc2)c(OC)c1` [Example 154], the “Residual activity % of the NCBE at 10 μM” value is 36.2%.
`COC(=O)C(c1ccccc1)N(Cc1ccc(-c2ccccc2S(=O)(=O)NC#N)cc1)C(=O)CCc1cccs1` (centres unmarked) [Example 286]: the “Residual activity % of the NCBE at 10 μM” value amounted to 68.8%.
Consider `N#CNS(=O)(=O)c1ccccc1-c1ccc(CN(Cc2ccc(Cl)c(Cl)c2)C(=O)Cc2ccccc2[N+](=O)[O-])cc1` [Example 261], for which the “Residual activity % of the NCBE at 10 μM” value is reported as 67.7%.
With `CC(C)(C)CC(=O)N(Cc1ccc(-c2ccccc2S(=O)(=O)NC#N)cc1)CC1CC1` [Example 161], the “Residual activity % of the NCBE at 10 μM” value was determined as 81.6%.
The same measure, in the same setting: as for `Cc1ccc(CN(Cc2ccc(-c3ccccc3S(=O)(=O)NC#N)cc2)C(=O)C(C(=O)Cc2ccccc2)c2ccccc2)cc1` (centres unmarked) [Example 135], the figure is 97.4%.
Consider `N#CNS(=O)(=O)c1ccccc1-c1ccc(CN(Cc2ccc(Cl)cc2)C(=O)c2ccccc2Cl)cc1` [Example 58], for which the “Residual activity % of the NCBE at 10 μM” value turned out to be 59.4%.
On the same count and under the same terms, next, `N#CNS(=O)(=O)c1ccccc1-c1ccc(CN(Cc2cccc(Cl)c2)C(=O)Cc2cccs2)cc1` [Example 273]: 32.4%; `N#CNS(=O)(=O)c1ccccc1-c1ccc(CN(CCCc2ccccc2)C(=O)Cc2cccs2)cc1` [Example 236]: 35.1%.
In the case of `CC(=O)N(CCOc1ccccc1)Cc1ccc(-c2ccccc2S(=O)(=O)NC#N)cc1` [Example 180], the “Residual activity % of the NCBE at 10 μM” value is 70.9%.
Still for that read-out and setting: as for `N#CNS(=O)(=O)c1ccccc1-c1ccc(CN(Cc2ccccn2)C(=O)Cc2csc3ccccc23)cc1` [Example 212], the figure is 60.2%.
With `N#CNS(=O)(=O)c1ccccc1-c1ccc(CN(Cc2cccs2)C(=O)Cc2cccs2)cc1` [Example 250], the “Residual activity % of the NCBE at 10 μM” value stood at 41.1%.
In the case of `COc1ccccc1C(=O)N(Cc1ccc(-c2ccccc2S(=O)(=O)NC#N)cc1)Cc1cccc(-c2ccccc2)c1` [Example 337], the “Residual activity % of the NCBE at 10 μM” value is 51.2%.
For `Cc1ccccc1CN(Cc1ccc(-c2ccccc2S(=O)(=O)NC#N)cc1)C(=O)CC1CCCC1` [Example 362], the “Residual activity % of the NCBE at 10 μM” value is on record as 44.1%.
In the case of `N#CNS(=O)(=O)c1ccccc1-c1ccc(CN(Cc2ccc(C(F)(F)F)cc2)C(=O)c2ccccc2F)cc1` [Example 99], the “Residual activity % of the NCBE at 10 μM” value stood at 89.6%.
As for `COc1ccccc1CN(Cc1ccc(-c2ccccc2S(=O)(=O)NC#N)cc1)C(=O)Cc1ccccc1` [Example 124], the “Residual activity % of the NCBE at 10 μM” value was 46.5%.
The same measure, in the same setting: as for `N#CNS(=O)(=O)c1ccccc1-c1ccc(CN(Cc2ccc(Cl)cc2Cl)C(=O)CCS(=O)(=O)c2ccccc2)cc1` [Example 279], the figure is 90.5%.

The same assay, now with this note: compound at 10 μM; R(3) to R(7) hydrogen series.
Regarding `CC(C(=O)N(Cc1ccccc1)Cc1ccc(-c2ccccc2S(=O)(=O)NC#N)cc1)c1ccsc1` (centres unmarked) [Example 388], the “Residual activity % of the NCBE at 10 μM” value is listed as 63.7%.

Staying with this assay, now noted: compound at 10 μM; sub-table with R7 substituent.
In the case of `Cc1ccc(-c2ccc(CN(CCc3ccccc3)C(=O)Cc3ccc(Cl)cc3)cc2)c(S(=O)(=O)NC#N)c1` [Example 534], the “Residual activity % of the NCBE at 10 μM” value is reported as 80.0%.
Consider `N#CNS(=O)(=O)c1ccc(Cl)cc1-c1ccc(CN(Cc2ccccc2)C(=O)Cc2cccs2)cc1` [Example 553], for which the “Residual activity % of the NCBE at 10 μM” value was 85.7%.
For the molecule `Cc1ccc(-c2ccc(CN(Cc3ccc4ccccc4c3)C(=O)C(C)c3cccs3)cc2)c(S(=O)(=O)NC#N)c1` (centres unmarked) [Example 523], the “Residual activity % of the NCBE at 10 μM” value amounted to 92.3%.
